Legend:
Assay in all cases: Kinase inhibitory activity profiling of RI-962@10 µM (406 kinases, Eurofins)
Assay type in all cases: biochemical
[1] = molecular target: panel of human kinases (kinase named in endpoint) (Homo sapiens, UniProt Q9Y4K4); details: 10 µM; read-out: Activity (%), MAP4K5(h)
In short: (§1)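 Radiometric filter-binding kinase assays: enzyme preincubated 15 min with compound in 8 mM MOPS pH 7.0, 0.2 mM EDTA, 250 μM peptide substrate, 10 mM magnesium acetate, 10 μM [γ-33P]-ATP. Reaction started with Mg/ATP, run 40 min at room temperature, stopped with phosphoric acid; 33P incorporation read by scintillation counting. Other kinases by similar protocols.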

[2] = molecular target: panel of human kinases (kinase named in endpoint) (Homo sapiens, UniProt Q8TDC3); details: 10 µM; read-out: Activity (%), BrSK1(h)
In short: as §1

[3] = molecular target: panel of human kinases (kinase named in endpoint) (Homo sapiens, UniProt Q05513); details: 10 µM; read-out: Activity (%), PKCζ(h)
In short: as §1

[4] = molecular target: panel of human kinases (kinase named in endpoint) (Homo sapiens, UniProt O75582); details: 10 µM; read-out: Activity (%), MSK1(h)
panel of human kinases (kinase named in endpoint) (Homo sapiens, UniProt O75582), sequence (O75582 whole entry): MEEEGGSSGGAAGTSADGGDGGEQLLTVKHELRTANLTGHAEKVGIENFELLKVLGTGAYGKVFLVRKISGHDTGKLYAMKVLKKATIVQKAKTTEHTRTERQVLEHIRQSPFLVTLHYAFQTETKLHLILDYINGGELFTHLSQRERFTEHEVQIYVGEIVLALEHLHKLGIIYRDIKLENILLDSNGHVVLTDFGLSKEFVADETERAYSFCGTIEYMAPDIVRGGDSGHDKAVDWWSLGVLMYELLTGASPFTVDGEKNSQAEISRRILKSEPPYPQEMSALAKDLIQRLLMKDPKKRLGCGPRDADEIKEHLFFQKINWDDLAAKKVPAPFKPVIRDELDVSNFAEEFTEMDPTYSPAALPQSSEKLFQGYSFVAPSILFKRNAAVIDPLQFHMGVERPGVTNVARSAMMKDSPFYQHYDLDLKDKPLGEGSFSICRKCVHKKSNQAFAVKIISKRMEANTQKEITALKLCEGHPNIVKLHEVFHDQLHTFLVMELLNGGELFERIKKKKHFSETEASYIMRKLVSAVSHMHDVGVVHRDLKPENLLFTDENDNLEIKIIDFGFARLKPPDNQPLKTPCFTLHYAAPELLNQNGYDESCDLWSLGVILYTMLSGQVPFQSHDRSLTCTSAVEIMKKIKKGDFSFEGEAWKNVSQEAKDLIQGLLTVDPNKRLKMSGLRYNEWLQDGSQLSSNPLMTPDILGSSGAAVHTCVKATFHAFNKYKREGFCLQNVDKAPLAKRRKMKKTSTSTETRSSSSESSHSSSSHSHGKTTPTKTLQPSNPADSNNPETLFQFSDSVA
In short: as §1

[5] = molecular target: panel of human kinases (kinase named in endpoint) (Homo sapiens, UniProt P29320); details: 10 µM; read-out: Activity (%), EphA3(h)
In short: as §1

[6] = molecular target: panel of human kinases (kinase named in endpoint) (Homo sapiens, UniProt P08581, Y1230D); details: 10 µM; read-out: Activity (%), Met(Y1248D)(h)
In short: as §1

[7] = molecular target: panel of human kinases (kinase named in endpoint) (Homo sapiens, UniProt O00311); details: 10 µM; read-out: Activity (%), Cdc7/cyclinB1(h)
In short: as §1

[8] = molecular target: panel of human kinases (kinase named in endpoint) (Homo sapiens, UniProt Q14012); details: 10 µM; read-out: Activity (%), CaMKI(h)
panel of human kinases (kinase named in endpoint) (Homo sapiens, UniProt Q14012), sequence (Q14012 whole entry): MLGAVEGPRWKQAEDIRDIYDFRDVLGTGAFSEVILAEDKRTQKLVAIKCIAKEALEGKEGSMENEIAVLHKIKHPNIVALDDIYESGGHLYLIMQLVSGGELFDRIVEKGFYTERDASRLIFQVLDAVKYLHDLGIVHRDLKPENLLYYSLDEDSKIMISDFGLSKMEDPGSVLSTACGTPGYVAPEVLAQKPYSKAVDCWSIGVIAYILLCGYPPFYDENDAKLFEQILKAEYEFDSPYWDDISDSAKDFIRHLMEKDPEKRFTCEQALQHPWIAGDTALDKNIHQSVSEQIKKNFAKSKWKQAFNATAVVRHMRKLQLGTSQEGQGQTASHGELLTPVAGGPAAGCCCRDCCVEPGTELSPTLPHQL
In short: as §1

[9] = molecular target: panel of human kinases (kinase named in endpoint) (Homo sapiens, UniProt O75116); details: 10 µM; read-out: Activity (%), ROCK-II(h)
In short: as §1

[10] = molecular target: panel of human kinases (kinase named in endpoint) (Homo sapiens, UniProt Q9UPZ9); details: 10 µM; read-out: Activity (%), ICK(h)
In short: as §1

[11] = molecular target: panel of human kinases (kinase named in endpoint) (Homo sapiens, UniProt Q13882); details: 10 µM; read-out: Activity (%), BRK(h)
In short: as §1

[12] = molecular target: panel of human kinases (kinase named in endpoint) (Homo sapiens, UniProt P08581, D1228N); details: 10 µM; read-out: Activity (%), Met(D1246N)(h)
In short: as §1

[13] = molecular target: panel of human kinases (kinase named in endpoint) (Homo sapiens, UniProt Q7KZI7); details: 10 µM; read-out: Activity (%), PAR-1Bα(h)
In short: as §1

[14] = molecular target: panel of human kinases (kinase named in endpoint) (Homo sapiens, UniProt P21709); details: 10 µM; read-out: Activity (%), EphA1(h)
panel of human kinases (kinase named in endpoint) (Homo sapiens, UniProt P21709), sequence (P21709 26-976): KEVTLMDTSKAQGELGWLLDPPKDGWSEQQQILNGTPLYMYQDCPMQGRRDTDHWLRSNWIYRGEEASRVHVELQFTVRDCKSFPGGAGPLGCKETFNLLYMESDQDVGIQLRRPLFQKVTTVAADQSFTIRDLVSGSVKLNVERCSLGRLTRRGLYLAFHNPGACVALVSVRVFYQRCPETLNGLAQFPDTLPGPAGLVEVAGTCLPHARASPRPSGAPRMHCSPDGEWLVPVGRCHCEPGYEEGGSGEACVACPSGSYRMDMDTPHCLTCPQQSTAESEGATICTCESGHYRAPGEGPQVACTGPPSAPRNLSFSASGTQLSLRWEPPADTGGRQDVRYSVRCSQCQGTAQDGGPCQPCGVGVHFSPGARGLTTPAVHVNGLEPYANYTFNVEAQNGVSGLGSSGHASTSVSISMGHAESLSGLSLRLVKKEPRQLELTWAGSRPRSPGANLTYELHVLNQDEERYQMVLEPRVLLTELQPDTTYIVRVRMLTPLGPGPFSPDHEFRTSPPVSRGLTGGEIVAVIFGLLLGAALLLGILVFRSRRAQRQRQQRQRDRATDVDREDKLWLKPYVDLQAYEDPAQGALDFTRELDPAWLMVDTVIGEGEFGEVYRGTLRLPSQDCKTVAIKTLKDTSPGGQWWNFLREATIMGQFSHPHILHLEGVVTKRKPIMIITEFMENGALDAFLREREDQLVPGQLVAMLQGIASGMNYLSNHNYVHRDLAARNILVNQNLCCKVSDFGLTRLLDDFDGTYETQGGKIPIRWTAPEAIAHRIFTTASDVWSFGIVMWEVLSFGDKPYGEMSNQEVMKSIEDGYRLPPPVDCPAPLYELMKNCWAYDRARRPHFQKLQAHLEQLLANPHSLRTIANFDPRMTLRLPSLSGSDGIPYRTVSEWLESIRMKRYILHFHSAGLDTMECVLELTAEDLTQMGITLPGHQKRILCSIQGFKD
In short: as §1

[15] = molecular target: panel of human kinases (kinase named in endpoint) (Homo sapiens, UniProt O94921); details: 10 µM; read-out: Activity (%), CDK14/cyclinY(h)
In short: as §1

[16] = molecular target: panel of human kinases (kinase named in endpoint) (Homo sapiens, UniProt Q8N568); details: 10 µM; read-out: Activity (%), DCAMKL2(h)
panel of human kinases (kinase named in endpoint) (Homo sapiens, UniProt Q8N568), sequence (Q8N568 whole entry): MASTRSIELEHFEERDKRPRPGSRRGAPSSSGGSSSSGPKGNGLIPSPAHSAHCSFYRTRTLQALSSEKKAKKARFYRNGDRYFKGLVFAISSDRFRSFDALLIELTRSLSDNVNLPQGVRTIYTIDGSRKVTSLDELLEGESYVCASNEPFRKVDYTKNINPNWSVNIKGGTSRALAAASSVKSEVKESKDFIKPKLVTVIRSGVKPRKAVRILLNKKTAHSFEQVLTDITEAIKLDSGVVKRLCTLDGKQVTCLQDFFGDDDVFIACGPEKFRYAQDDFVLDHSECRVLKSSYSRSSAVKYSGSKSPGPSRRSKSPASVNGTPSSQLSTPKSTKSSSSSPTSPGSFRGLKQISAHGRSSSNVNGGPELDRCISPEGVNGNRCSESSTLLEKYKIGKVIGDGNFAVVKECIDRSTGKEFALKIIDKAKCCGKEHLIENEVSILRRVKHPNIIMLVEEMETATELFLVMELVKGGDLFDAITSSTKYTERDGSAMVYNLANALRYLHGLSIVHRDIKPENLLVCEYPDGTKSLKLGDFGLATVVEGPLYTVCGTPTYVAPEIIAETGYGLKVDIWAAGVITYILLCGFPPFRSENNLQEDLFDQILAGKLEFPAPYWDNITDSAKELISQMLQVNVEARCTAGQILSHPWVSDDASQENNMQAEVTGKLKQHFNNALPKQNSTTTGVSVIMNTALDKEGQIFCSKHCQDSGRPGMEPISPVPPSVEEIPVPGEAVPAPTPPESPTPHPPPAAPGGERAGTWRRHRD
In short: as §1

[17] = molecular target: panel of human kinases (kinase named in endpoint) (Homo sapiens, UniProt P49840); details: 10 µM; read-out: Activity (%), GSK3α(h)
In short: as §1

[18] = molecular target: panel of human kinases (kinase named in endpoint) (Homo sapiens, UniProt Q8IU85); details: 10 µM; read-out: Activity (%), CaMKIδ(h)
In short: as §1

[19] = molecular target: panel of human kinases (kinase named in endpoint) (Homo sapiens, UniProt Q15139); details: 10 µM; read-out: Activity (%), PKCμ(h)
In short: as §1

[20] = molecular target: panel of human kinases (kinase named in endpoint) (Homo sapiens, UniProt P51451); details: 10 µM; read-out: Activity (%), Blk(h)
In short: as §1

[21] = molecular target: panel of human kinases (kinase named in endpoint) (Homo sapiens, UniProt P42685); details: 10 µM; read-out: Activity (%), PTK5(h)
In short: as §1

[22] = molecular target: panel of human kinases (kinase named in endpoint) (Homo sapiens, UniProt Q86V86); details: 10 µM; read-out: Activity (%), Pim-3(h)
In short: as §1

[23] = molecular target: panel of human kinases (kinase named in endpoint) (Homo sapiens, UniProt P48426); details: 10 µM; read-out: Activity (%), PIP4K2a(h)
panel of human kinases (kinase named in endpoint) (Homo sapiens, UniProt P48426), sequence (P48426 whole entry): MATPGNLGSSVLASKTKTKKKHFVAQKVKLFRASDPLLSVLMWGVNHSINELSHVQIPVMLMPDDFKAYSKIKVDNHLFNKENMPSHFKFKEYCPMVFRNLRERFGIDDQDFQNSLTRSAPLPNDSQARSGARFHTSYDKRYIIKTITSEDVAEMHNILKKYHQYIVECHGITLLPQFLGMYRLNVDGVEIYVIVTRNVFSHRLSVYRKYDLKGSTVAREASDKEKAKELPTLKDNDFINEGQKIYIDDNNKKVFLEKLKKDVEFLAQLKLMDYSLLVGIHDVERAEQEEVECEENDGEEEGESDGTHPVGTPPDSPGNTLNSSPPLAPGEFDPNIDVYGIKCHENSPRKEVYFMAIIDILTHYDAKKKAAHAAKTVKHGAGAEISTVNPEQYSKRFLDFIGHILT
In short: as §1

[24] = molecular target: panel of human kinases (kinase named in endpoint) (Homo sapiens, UniProt P42680); details: 10 µM; read-out: Activity (%), Tec(h) activated
panel of human kinases (kinase named in endpoint) (Homo sapiens, UniProt P42680), sequence (P42680 whole entry): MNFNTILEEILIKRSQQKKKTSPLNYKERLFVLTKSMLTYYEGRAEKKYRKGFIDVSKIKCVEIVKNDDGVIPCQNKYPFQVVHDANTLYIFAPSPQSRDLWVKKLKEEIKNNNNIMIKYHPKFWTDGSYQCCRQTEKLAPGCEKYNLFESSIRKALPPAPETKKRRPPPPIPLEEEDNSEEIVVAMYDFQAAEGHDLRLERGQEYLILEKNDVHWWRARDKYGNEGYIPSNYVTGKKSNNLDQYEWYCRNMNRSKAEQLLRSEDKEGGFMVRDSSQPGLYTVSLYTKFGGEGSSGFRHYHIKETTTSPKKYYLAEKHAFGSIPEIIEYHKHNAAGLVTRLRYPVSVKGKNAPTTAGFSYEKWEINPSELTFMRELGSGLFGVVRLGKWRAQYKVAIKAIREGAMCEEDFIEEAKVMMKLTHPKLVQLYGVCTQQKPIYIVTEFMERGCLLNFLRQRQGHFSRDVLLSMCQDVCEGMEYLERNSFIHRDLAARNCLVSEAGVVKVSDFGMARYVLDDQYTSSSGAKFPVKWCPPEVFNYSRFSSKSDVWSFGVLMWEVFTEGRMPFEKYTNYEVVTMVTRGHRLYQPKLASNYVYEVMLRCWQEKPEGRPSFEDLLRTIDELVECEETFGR
In short: as §1

[25] = molecular target: panel of human kinases (kinase named in endpoint) (Homo sapiens, UniProt Q9UBE8); details: 10 µM; read-out: Activity (%), NLK(h)
panel of human kinases (kinase named in endpoint) (Homo sapiens, UniProt Q9UBE8), sequence (Q9UBE8 whole entry): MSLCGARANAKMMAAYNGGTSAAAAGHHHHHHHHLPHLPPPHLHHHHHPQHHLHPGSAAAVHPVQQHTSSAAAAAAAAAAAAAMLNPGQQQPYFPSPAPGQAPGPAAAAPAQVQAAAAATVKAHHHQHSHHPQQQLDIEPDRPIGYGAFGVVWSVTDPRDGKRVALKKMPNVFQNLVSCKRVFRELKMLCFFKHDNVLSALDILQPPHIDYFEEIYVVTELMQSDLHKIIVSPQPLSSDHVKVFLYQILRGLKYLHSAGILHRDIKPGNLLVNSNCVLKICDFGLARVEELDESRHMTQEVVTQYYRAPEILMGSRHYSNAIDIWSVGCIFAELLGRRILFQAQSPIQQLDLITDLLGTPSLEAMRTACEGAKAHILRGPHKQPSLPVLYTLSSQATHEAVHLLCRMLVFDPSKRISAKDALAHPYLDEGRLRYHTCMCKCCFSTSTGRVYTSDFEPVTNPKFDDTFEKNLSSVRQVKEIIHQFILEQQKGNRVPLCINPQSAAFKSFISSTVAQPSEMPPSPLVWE
In short: as §1

[26] = molecular target: panel of human kinases (kinase named in endpoint) (Homo sapiens, UniProt Q96RR4); details: 10 µM; read-out: Activity (%), CaMKK2(h)
panel of human kinases (kinase named in endpoint) (Homo sapiens, UniProt Q96RR4), sequence (Q96RR4 whole entry): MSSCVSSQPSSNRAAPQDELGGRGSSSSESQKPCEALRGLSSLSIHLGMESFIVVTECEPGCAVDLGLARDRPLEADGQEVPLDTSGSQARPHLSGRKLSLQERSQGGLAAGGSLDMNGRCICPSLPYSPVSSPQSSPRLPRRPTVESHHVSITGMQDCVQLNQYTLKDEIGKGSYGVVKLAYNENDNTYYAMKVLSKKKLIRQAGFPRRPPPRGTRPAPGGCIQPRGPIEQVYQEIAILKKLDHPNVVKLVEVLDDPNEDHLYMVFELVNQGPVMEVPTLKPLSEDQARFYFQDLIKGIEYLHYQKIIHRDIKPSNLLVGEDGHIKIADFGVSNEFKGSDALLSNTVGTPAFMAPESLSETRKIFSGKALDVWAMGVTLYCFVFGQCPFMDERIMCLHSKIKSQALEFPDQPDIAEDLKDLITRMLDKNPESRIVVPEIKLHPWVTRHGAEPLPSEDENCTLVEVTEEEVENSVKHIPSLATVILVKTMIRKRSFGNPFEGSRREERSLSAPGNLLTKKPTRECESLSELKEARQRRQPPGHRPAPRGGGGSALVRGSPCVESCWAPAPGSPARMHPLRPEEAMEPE
In short: as §1

CC(C)C(=O)Nc1nc2cc(-c3ccc4c(c3)c(C(=O)NC(C)c3ccccc3)cn4C)ccn2n1 (centres unmarked) [RI-962]
activity at 10 µM [1]: 100%
activity at 10 µM [2]: 100%
activity at 10 µM [3]: 119%
activity at 10 µM [4]: 112%
activity at 10 µM [5]: 105%
activity at 10 µM [6]: 110%
activity at 10 µM [7]: 53%
activity at 10 µM [8]: 92%
activity at 10 µM [9]: 90%
activity at 10 µM [10]: 102%
activity at 10 µM [11]: 101%
activity at 10 µM [12]: 125%
activity at 10 µM [13]: 103%
activity at 10 µM [14]: 97%
activity at 10 µM [15]: 91%
activity at 10 µM [16]: 132%
activity at 10 µM [17]: 112%
activity at 10 µM [18]: 104%
activity at 10 µM [19]: 87%
activity at 10 µM [20]: 96%
activity at 10 µM [21]: 104%
activity at 10 µM [22]: 111%
activity at 10 µM [23]: 98%
activity at 10 µM [24]: 103%
activity at 10 µM [25]: 93%
activity at 10 µM [26]: 81%
